SMILES strings stand for the structures. Bounds are passed on as bounds.

We go through two compounds from article PMC5785997, “2-Phenylquinazolinones as dual-activity tankyrase-kinase inhibitors” (Scientific Reports, 2018).

In one assay the target is ARTD1/PARP1 (Homo sapiens, UniProt P09874). The assay can be described thus: ARTD profiling, ARTD1.
The next assay addresses ARTD8/PARP14 (Homo sapiens, UniProt Q460N5). Put plainly: ARTD profiling, ARTD8.
Assay [1] concerns Wnt/β-catenin signaling (TCF/LEF Reporter HEK293 Cell Line). Put plainly: Wnt signaling TCF/LEF reporter assay in HEK293 cells. It counts as cell-based, human. As to conditions: for Wnt (HEK293) inhibition at 1 µM: 1 µM compound; for inhibition at 1 µM: HEK293, 1 µM compound. On the procedure:
The Wnt assay was performed using a procedure modified from the BPS Bioscience protocol. Details are given in the Supplementary Methods. […]
The Wnt Signaling Pathway TCF/LEF Reporter HEK293 Cell Line (BPS Bioscience, catalog […]
Reporter HEK293 cells were grown at 37 °C with 5% CO2 using Dulbecco's Modified Eagle's Medium (DMEM, Sigma), supplemented with 10% of fetal bovine serum (Lonza), 1% non-essential amino acid (Sigma), 1X of penicillin and streptomycin (Sigma), and 400 µg/ml of Geneticin (Roche). Wnt-3a and L cells (ATCC) were cultured in Dulbecco’s modified Eagle’s medium supplemented with 10% fetal bovine serum, penicillin and streptomycin at 37 °C in a 5%
CO2. Wnt3a and control conditioned medium preparation has been described previously1. The Wnt assay was performed using a procedure modified from the BPS Bioscience protocol. 30,000 HEK293 cells/well in 40 µl of serum-free DMEM were plated on 96-well plate (white wells, clear […]
bottom, PerkinElmer). 10 µl of 50 mM LiCl in serum-free DMEM with 5x concentration of DMSO or tankyrase inhibitors was added. After 16 hours of incubation, 25 µl of Wnt3a or control conditioned medium supplemented with DMSO or tankyrase inhibitors was added on cells and cells were incubated for additional 24 hours. After the second incubation, the 96-well plates were balanced in room temperature for 30 minutes. Wnt3a induced luciferase activity was determined using ONE-Glo Luciferase Assay System (Promega) according to manufacturer’s protocol. […]
Difference Fourier method deriving the starting phases from 3U9H. The refinement of the structures was done with REFMAC5.5,6 Final manual building, analysis and visualization of the structures were made with Coot7 and PyMOL (www.pymol.org). All chemical structures were drawn with Marvin (Marvin 5.7.0 2011, ChemAxon, http://www.chemaxon.com). The docking studies were performed using GOLD software.8
(In general: In a reporter assay the amount or activity of a reporter protein is the signal.)

The next assay deals with T1, ARTD12/PARP12 (Homo sapiens, UniProt Q9H0J9).
T1 sequence (Q9H0J9 484-698 limits assumed): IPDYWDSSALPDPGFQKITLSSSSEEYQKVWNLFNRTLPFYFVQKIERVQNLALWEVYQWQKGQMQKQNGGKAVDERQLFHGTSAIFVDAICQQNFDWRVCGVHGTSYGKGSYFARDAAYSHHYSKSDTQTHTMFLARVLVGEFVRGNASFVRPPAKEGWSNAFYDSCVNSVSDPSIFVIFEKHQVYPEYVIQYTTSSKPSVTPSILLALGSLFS
The assay can be described thus: ARTD profiling, ARTD12.

For another assay, the target named is ARTD2/PARP2 (Homo sapiens, UniProt Q9UGN5). The assay can be described thus: ARTD profiling, ARTD2.
ARTD2/PARP2, sequence (Q9UGN5 whole entry): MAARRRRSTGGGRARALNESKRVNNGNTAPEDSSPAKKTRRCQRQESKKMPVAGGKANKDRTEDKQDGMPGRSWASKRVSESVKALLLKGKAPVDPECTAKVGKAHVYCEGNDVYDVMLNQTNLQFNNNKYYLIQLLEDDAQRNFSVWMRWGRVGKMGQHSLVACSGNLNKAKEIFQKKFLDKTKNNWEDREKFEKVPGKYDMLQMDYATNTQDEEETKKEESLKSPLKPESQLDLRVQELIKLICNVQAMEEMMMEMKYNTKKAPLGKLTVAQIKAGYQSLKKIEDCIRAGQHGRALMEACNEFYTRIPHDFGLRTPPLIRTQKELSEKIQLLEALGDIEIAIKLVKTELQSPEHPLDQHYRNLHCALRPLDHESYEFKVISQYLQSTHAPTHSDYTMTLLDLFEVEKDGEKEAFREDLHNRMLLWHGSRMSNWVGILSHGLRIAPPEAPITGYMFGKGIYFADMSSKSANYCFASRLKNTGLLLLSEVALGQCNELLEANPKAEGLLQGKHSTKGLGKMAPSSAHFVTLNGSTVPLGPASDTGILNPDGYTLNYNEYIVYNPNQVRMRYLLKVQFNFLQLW
The next assay deals with ERK2 (Homo sapiens, UniProt P28482). The assay can be described thus: Kinase functional assay (mobility shift), ERK2 (p42). It counts as biochemical. To be noted: read-out: ERK2 (% Inhib.); for inhibition at 1 µM: 1 µM compound, Table S3; for inhibition at 10 µM: 10 µM compound, Table S4.
ERK2, sequence (P28482 whole entry, species assumed): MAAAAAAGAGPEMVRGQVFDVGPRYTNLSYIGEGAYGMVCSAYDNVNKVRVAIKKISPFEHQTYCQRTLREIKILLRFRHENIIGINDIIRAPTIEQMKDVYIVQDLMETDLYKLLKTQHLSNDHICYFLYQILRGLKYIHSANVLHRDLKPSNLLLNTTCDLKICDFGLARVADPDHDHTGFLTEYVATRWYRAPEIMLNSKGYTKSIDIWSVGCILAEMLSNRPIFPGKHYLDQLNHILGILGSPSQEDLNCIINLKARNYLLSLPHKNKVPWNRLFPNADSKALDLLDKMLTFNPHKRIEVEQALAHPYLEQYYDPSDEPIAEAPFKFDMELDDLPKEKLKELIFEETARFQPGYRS
Another assay has as its target T2, human CK2α-1 (Homo sapiens, UniProt P68400).
T2 construct: purchased Promega V4,482
Put plainly: ADP-Glo kinase assay, CK2. It counts as biochemical. As to conditions: read-out: CK2 (% Inhib.); for inhibition at 1 µM: 1 µM compound, Table S3; for inhibition at 10 µM: 10 µM compound, Table S4. On the procedure:
The kinase functional assays were performed using a combination of kinase and 1.5 μM peptide substrate in the presence of ATP. The reaction mixture was analyzed on the Caliper LabChip 3,000 (Caliper, Hopkinton, MA) by the electrophoretic mobility shift of the fluorescent substrate and phosphorylated product. For the inhibition of human CK2α-1, the experiments were carried out with ADP-Glo kinase Assay Kit (Promega V9,101). Assays are described in detail in the Supplementary Methods and Table S6. […]
Dose-response curves were generated to determine the concentration required to inhibit 50% of kinase activity (IC50). Staurosporine (Invitrogen BP2,451) was included as a positive control of each enzymatic assay. The profiling of the kinases was done at 1 and at 10 μM of the compound.
For the inhibition of human CK2α-1, the experiments were carried out in a white 384-microplate low flange (Corning 3,572) with ADP-Glo kinase Assay Kit (Promega V9101) and CK2α-1 Kinase Enzyme System (Promega V4,482). The test compounds and standard staurosporine (Invitrogen BP2451), 25 ng/well CK2α-1 kinase and 50 µM ATP were added in a final volume of 10 µl/well using reaction buffer supplied by kit as assay buffer. The reaction mixture was incubated in gentle shaking for 60 minutes at room temperature. After the incubation 10 µl of ADP-Glo reagent was added and incubated in gentle shaking for 40 minutes at room temperature. Finally 20 µl of Kinase Detection Reagent was added and the plate was incubated on a shaker for 30 minutes at room […]
temperature. […]
A general note: In ADP-Glo the light output rises with the ADP produced.

For a further assay, the target named is TNKS2 (Homo sapiens, UniProt Q9H2K2). The assay can be described thus: NAD+ quantification activity assay, TNKS2. To be noted: TNKS2 IC50, NAD+ 500 nM. It counts as biochemical.
TNKS2, sequence (Q9H2K2 959-1164): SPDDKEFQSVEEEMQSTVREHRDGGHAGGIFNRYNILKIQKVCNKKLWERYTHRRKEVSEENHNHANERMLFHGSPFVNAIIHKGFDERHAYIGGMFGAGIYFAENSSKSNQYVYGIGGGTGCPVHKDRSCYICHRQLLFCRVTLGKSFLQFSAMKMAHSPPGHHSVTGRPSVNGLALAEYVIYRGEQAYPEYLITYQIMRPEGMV
The target of another assay is p38α (Homo sapiens, UniProt Q16539). The assay can be described thus: Kinase functional assay (mobility shift), p38α. It is filed as biochemical. As to conditions: read-out: p38α (% Inhib.); for inhibition at 1 µM: 1 µM compound, Table S3; for inhibition at 10 µM: 10 µM compound, Table S4.
p38α, sequence (Q16539 whole entry): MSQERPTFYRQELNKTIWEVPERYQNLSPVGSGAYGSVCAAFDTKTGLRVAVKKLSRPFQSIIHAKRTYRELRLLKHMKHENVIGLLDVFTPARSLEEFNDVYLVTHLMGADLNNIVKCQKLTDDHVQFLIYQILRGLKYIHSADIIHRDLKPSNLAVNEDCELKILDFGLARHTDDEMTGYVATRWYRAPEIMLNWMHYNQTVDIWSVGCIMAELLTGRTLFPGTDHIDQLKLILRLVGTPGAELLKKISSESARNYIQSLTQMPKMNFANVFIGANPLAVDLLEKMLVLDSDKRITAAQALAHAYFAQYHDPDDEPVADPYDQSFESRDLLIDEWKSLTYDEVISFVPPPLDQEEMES
For another assay, the target named is T3, ARTD7/PARP15 (Homo sapiens, UniProt Q460N3).
T3 sequence (Q460N3 482-678 limits assumed): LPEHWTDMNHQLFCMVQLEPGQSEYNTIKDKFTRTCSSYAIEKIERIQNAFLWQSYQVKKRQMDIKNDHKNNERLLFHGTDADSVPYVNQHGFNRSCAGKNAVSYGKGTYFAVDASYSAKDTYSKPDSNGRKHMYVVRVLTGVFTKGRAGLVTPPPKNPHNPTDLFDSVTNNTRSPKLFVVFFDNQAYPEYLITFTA
The assay can be described thus: ARTD profiling, ARTD7.

The mark [2] stands for this setting: Homo sapiens, TCF/LEF reporter HEK293.

T2 sequence (P68400 whole entry): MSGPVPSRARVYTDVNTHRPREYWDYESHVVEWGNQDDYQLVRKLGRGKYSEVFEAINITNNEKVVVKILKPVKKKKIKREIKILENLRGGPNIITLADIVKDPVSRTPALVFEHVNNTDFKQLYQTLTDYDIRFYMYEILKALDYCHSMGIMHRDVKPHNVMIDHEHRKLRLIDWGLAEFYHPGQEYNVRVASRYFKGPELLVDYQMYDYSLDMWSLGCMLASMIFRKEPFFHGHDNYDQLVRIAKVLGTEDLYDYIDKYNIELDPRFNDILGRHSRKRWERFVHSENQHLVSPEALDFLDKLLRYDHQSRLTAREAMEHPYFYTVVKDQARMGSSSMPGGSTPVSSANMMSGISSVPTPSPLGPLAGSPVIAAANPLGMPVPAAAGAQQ
ARTD1/PARP1, sequence (P09874 whole entry): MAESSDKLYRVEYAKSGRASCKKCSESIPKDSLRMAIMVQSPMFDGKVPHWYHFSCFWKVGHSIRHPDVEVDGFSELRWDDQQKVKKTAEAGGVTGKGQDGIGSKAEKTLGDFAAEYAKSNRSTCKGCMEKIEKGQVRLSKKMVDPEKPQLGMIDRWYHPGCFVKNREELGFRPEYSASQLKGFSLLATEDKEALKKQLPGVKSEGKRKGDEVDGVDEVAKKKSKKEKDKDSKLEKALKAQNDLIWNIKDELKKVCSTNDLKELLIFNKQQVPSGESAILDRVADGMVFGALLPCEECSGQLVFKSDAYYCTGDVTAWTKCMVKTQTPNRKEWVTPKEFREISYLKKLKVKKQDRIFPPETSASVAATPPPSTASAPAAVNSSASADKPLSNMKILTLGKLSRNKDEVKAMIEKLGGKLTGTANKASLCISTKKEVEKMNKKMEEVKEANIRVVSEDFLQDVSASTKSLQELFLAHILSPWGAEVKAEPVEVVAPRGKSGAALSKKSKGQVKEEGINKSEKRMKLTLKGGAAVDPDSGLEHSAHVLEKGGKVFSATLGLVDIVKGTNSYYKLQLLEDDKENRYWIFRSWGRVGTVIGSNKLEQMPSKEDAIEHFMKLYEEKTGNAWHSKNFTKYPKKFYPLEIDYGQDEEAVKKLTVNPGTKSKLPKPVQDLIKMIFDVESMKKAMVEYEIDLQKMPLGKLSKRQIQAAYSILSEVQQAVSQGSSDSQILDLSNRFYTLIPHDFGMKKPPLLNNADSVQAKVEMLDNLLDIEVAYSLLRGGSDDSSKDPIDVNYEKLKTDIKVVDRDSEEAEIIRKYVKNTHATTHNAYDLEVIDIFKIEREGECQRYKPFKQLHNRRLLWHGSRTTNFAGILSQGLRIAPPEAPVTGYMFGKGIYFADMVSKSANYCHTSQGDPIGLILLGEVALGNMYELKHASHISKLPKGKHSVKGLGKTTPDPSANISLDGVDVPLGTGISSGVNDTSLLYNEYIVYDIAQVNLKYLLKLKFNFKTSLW
ARTD8/PARP14, sequence (Q460N5 whole entry): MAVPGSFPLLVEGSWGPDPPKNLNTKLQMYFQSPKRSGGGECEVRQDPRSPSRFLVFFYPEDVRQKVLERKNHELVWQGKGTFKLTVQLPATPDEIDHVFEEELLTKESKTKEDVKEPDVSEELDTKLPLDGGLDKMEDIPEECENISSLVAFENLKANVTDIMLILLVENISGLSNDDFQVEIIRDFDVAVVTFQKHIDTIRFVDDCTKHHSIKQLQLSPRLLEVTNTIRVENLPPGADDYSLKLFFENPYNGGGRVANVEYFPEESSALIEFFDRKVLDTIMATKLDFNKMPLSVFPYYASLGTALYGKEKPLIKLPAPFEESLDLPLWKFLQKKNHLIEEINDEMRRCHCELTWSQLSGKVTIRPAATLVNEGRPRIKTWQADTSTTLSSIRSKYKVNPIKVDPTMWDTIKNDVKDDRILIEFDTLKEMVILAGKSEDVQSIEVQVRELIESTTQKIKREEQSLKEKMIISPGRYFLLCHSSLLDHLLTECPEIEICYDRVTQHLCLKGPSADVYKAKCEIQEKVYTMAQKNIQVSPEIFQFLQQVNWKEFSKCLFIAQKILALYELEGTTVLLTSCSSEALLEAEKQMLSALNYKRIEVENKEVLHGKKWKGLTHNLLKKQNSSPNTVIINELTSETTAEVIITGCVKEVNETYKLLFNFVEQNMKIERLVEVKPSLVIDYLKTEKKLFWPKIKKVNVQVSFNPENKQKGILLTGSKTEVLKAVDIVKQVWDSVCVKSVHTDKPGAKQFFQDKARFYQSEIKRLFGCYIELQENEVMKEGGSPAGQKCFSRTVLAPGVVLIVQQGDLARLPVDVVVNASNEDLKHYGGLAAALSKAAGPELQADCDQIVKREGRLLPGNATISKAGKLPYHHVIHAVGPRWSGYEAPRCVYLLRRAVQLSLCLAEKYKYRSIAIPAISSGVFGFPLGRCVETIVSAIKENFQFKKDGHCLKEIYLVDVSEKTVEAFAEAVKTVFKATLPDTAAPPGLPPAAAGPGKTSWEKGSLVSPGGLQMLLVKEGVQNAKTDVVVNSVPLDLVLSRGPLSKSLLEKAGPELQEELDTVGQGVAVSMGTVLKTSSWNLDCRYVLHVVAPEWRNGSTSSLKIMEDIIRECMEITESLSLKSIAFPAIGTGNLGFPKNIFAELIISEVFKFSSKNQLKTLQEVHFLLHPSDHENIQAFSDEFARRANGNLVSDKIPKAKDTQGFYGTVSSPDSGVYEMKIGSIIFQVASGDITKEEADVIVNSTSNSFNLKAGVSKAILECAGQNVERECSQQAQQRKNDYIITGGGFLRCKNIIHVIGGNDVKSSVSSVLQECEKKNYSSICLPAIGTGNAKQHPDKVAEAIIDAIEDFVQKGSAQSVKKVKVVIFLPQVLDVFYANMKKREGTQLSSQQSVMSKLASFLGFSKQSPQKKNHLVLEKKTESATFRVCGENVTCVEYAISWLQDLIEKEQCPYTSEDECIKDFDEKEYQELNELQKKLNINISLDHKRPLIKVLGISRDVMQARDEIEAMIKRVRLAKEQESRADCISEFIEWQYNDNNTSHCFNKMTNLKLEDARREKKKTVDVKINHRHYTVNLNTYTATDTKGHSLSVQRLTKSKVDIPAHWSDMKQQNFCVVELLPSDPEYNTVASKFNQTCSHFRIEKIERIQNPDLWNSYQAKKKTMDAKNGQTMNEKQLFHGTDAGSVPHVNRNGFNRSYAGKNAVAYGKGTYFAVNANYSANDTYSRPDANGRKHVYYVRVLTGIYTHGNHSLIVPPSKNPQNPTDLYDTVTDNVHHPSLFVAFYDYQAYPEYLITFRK

A word on the IC50: it is the midpoint of a concentration-inhibition curve. For `O=c1[nH]c(-c2ccc(N3CCCCC3)cc2)nc2ccccc12` [Compound 30], the 50% inhibitory concentration (IC50) at ARTD1/PARP1 is 18 µM; against ARTD8/PARP14, more than 10 µM; in assay [1] (setting [2]), 0.57 µM; at ARTD12/PARP12, more than 10 µM; against ARTD2/PARP2, 8.6 µM; on TNKS2 it was 0.015 µM. For the same compound, at ARTD7/PARP15, the half-inhibitory concentration (IC50) is more than 10 µM. Moreover, the “Wnt (HEK293) inhibition at 1 µM” value in [1] (TCF/LEF reporter HEK293) is recorded as more than 50%. Also, the inhibition at 1 µM in assay [1] (setting [2]) was found to be 61%; on ERK2, 2 ± 1%; at human CK2α-1, 1 ± 1%; on p38α, 3 ± 1%. In addition, the results for the inhibition at 10 µM at ERK2, at human CK2α-1 and on p38α were 3 ± 1%, 1 ± 1% and 3 ± 3%, respectively.

Take `CCN(CC)c1ccc(-c2nc3ccccc3c(=O)[nH]2)cc1` [Compound 32]: the IC50 was 30 µM against ARTD1/PARP1; more than 10 µM against ARTD8/PARP14; more than 10 µM at ARTD12/PARP12; 24 µM against ARTD2/PARP2; 0.01 µM at TNKS2; more than 10 µM on ARTD7/PARP15. Besides, in assay [1] (TCF/LEF reporter HEK293), the “Wnt (HEK293) inhibition at 1 µM” value turned out to be 63%. Besides, the inhibition at 1 µM was more than 50% in assay [1] (setting [2]), 2 ± 1% at ERK2, 2 ± 1% at human CK2α-1 and 1 ± 1% on p38α. For the same compound, the “Effect on Wnt/β-catenin signaling at lower concentrations” value in assay [1] (concentrations below 1 µM) is recorded as “activated Wnt/β-catening signaling”. Moreover, the inhibition at 10 µM at ERK2 amounted to 18 ± 3%; at human CK2α-1, 2 ± 1%; on p38α, 20 ± 2%.
